# Patent US20240109843A1, “BENZALDEHYDE COMPOUNDS WITH DIRECT POLYMER DESTABILIZING EFFECTS TO TREAT SICKLE CELL DISEASE” (VIRGINIA COMMONWEALTH UNIVERSITY, priority 2018, published 2024)
# Values joined by “and” are separate entries in the source; they are usually repeats but may differ in a detail not shown here. Equal entries are not always repeated.
# Legend:
# sickle red blood cells = assay: Antisickling study with human sickle blood under 2.5% oxygen; type: cell-based; conditions: Homo sapiens, Erythrocyte, sickle RBCs, 2.5% oxygen, read-out: sickling inhibition
# Method in brief: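 Homozygous SCD blood at 20% hematocrit preincubated with compound (0.5, 1, 2 mM) under air for 1 h at 37 °C, then under 2.5% O2 for 1 h. Cells fixed in 2% glutaraldehyde without air exposure; sickling scored by bright-field morphology at 40×.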
# intracellular Hb = target: T1, intracellular Hb (Mus musculus, UniProt P01942); assay: In vivo modification of intracellular Hb in wild-type mice; set-up: species or system C57BL/6 mice
# T1 construct: from tissue; host or cells: blood (red cell lysates) of dosed C57BL/6 mice
# Method in brief: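 C57BL/6 mice got a single 150 mg/kg dose, i.p. in 30% PEG300, or i.p. and oral in an alternative excipient. Blood was taken before dosing and at 1, 3 and 6 h (or 1, 3 or 5 h), then lysed. Lysates were analysed by cation-exchange HPLC for Hb adducts and by oxygen equilibrium for the p50 shift.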
# Hb [1] = target: T2, Hb (Mus musculus, UniProt P01942); assay: In vivo Hb oxygen affinity shift (Δp50) in wild-type mice; set-up: species or system C57BL/6 mice; conditions: for increase in Hb affinity (Δp50): IP 150 mg/kg
# T2 construct: from tissue; host or cells: blood (red cell lysates) of dosed C57BL/6 mice
# Protocol: We tested in vivo pharmacologic (pharmacodynamics) effects of select PP compounds in C57BL/6 mice. The animals were treated with a single intraperitoneal (IP) (150 mg/kg body weight) dose of PP6, PP10, PP14, and TD7, which were formulated with 30% PEG300. Blood samples were obtained prior to treatment (0) and 1, 3 and 6 h post-treatment, via submandibular bleeding, and subjected to hemolysis using standard methods. Clarified lysates, free of cell debris and red blood cell ghosts were analyzed by cation-exchange HPLC to determine the levels of drug-modified hemoglobin (adducts); and to conduct oxygen equilibrium studies to determine degrees of shift in p50 values using methodologies described earlier for in vitro studies on human samples. In a subsequent follow-up experiment, a new excipient obtained from Catalent Pharma Solutions was also used to formulate PP14 and used for a single intraperitoneal (IP) and oral (150 mg/kg body weight) dose. Blood samples were obtained prior to treatment (0) and 1, 3 or 5 h post-treatment, via submandibular bleeding, and used to determine the levels of drug-modified hemoglobin (adducts); and to conduct oxygen equilibrium studies to determine degrees of shift in p50 values as described above.
# Hb [2] = target: Hb (Homo sapiens, UniProt P69905); assay: Hb modification (drug-adduct formation) in SS blood suspensions by cation-exchange HPLC; type: binding; set-up: Blood suspensions from subjects with homozygous SCD; from tissue; host or cells: blood suspensions (20% hematocrit) from donors with homozygous SCD; lysates of the treated red cells; conditions: 2 mM, 4 biological replicates
# Method in brief: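 Homozygous SCD blood at 20% hematocrit in Hemox buffer with glucose and BSA was incubated with compound (0-2 mM) 1 h at 37° C in air, then up to 2 h hypoxia (2.5% O2). Lysates, with or without 50 mM sodium borohydride reduction, were analysed by weak cation-exchange HPLC at A410 nm for Hb-drug adducts.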
# T2 sequence (P01942 2-142 limits assumed): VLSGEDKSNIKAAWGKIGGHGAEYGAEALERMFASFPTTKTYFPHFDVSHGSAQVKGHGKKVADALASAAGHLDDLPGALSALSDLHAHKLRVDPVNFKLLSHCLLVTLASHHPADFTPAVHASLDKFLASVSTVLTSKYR
# T2 sequence (P02088 2-147 partner limits assumed): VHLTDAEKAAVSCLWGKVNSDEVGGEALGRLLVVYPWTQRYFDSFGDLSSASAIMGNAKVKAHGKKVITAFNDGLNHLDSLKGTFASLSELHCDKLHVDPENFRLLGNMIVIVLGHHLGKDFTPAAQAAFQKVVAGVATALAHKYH
# T1 sequence (P01942 2-142 limits assumed): as the sequence (P01942 2-142 limits assumed) above
# T1 sequence (P02088 2-147 partner limits assumed): as the sequence (P02088 2-147 partner limits assumed) above
# Hb (Homo sapiens, UniProt P69905), sequence (P69905 2-142): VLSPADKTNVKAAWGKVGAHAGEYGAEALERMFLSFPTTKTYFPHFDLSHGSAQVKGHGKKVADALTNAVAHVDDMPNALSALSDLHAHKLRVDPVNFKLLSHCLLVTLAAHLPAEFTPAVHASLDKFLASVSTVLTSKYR
# Hb (Homo sapiens, UniProt P69905), sequence (P68871 with tags, fused parts or gaps E7V partner): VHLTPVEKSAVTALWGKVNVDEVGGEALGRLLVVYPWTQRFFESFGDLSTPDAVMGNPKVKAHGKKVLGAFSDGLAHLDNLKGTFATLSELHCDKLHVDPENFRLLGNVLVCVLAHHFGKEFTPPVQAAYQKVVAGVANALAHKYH
structure (smiles),measurement,setting,value
"COC(=O)c1ccc(COc2cccc(O)c2C=O)cn1 [PP14, Methyl 5-((2-formyl-3-hydroxyphenoxy)methyl)picolinate]",inhibition at 500 µM,sickle red blood cells; 0.5 mM,> 35%
same,inhibition at 1000 µM,sickle red blood cells; 1 mM,> 70%
same,Hb modification,"intracellular Hb; IP 150 mg/kg, 30% PEG300, 1 hr",7%
same,Hb modification,"intracellular Hb; IP 150 mg/kg, 30% PEG300, 3 hr",13%
same,modified Hb,"intracellular Hb; IP 150 mg/kg, 30% PEG300, 6 h, 150 mg/kg",19.1±0.6% and 19%
same,Hb modification,"intracellular Hb; IP 150 mg/kg, Catalent excipient, 1 hr",21.8±1.6%
same,Hb modification,"intracellular Hb; IP 150 mg/kg, Catalent excipient, 3 hr",37.7±5.0%
same,Hb modification,"intracellular Hb; IP 150 mg/kg, Catalent excipient, 5 hr",51.1±4.3%
same,modified Hb,"intracellular Hb; oral gavage 150 mg/kg, Catalent excipient, 1 hr",14.5±3.7%
same,modified Hb,"intracellular Hb; oral gavage 150 mg/kg, Catalent excipient, 3 hr",16.3±2.2%
same,modified Hb,"intracellular Hb; oral gavage 150 mg/kg, Catalent excipient, 5 hr",17.1±4.4%
same,increase in Hb affinity (Δp50),Hb [1]; 30% PEG300,12%
same,increase in Hb affinity (Δp50),"Hb [1]; Catalent excipient, 5 hr",43.5±7.7%
same,increase in Hb oxygen affinity (Δp50),"Hb [1]; oral gavage 150 mg/kg, Catalent excipient",10.3±1.5%
same,Hb Modification (%),Hb [2],85.3 ± 11.3%
